# Data: patent publication US20250127778A1, “CANCER IMMUNOTHERAPY COMPOSITION CONTAINING INTERACTION INHIBITOR OF STING AND TRIM29 AS ACTIVE INGREDIENT” (SPARK BIOPHARMA, INC, priority 2021, published 2025)
# Columns and labels:
# [1] = test system: bone-marrow derived dendritic cells (BMDC) and OT-1 T cells; experiment: BMDC cross-antigen presentation with killed MC38 or MC38-OVA tumor cells; type: cell-based, mouse; details: with cGAMP, FIG. 19
# Description: In the same manner as <Experimental Example 7> above, mouse bone marrow-derived cells were obtained and differentiated. On the sixth day, 2×10^6 dendritic cells (BMDC) were co-cultured with 2×10^6 of MC38 or MC38-OVA tumor cells frozen-thawed three times and treated with cGAMP and/or the compound of Formula 1 in various concentrations. The cells were cultured at 37° C. in a 5% CO2 incubator for 24 hours, and then flow cytometry of dendritic cell activation markers (CD80, CD86, MHC II) was performed. Then, 5×10^4 cells were incubated with 2×10^5 CFSE-labeled OT-1 T cells (OVA-specific CD8^+ T cells) to observe OT-1 T cell proliferation.
# STING mRNA = experiment: qRT-PCR of STING mRNA in Raw264.7 cells; type: cell-based, mouse; details: FIG. 17
# TRIM29 = molecular target: T1, TRIM29 (Mus musculus, UniProt Q8R2Q0); experiment: ITDRF in Raw264.7 cells, TRIM29; type: binding; details: FIG. 14
# T1 construct: endogenous in cells; host or cells: Raw264.7
# T1 sequence (Q8R2Q0 1-587): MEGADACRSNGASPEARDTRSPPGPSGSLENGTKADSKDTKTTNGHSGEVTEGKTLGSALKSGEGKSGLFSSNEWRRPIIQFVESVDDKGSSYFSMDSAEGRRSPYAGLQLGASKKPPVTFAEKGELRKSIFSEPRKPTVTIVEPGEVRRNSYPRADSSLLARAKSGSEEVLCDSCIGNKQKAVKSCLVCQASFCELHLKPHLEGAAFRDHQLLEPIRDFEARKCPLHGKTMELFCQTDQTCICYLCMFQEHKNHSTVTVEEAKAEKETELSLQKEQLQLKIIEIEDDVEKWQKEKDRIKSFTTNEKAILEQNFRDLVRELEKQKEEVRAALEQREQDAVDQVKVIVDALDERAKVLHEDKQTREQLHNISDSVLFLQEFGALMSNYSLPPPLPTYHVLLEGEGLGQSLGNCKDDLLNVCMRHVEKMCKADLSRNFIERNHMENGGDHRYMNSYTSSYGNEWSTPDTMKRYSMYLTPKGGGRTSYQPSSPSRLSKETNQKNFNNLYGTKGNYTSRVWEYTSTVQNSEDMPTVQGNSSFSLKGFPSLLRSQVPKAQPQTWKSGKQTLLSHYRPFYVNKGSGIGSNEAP
# Source text: (§1) It was verified whether the oxopiperazine derivative of the present invention was bound to STING among STING and TRIM29 to inhibit interaction thereof, based on the compound of Formula 1, by the cellular thermal shift assay (CETSA) and the isothermal dose response fingerprint (ITDRF) which were major technologies for verifying the interaction between small molecule compounds and target proteins. (D. M. Molinaetal., Science 2013, 341, 84-87.)
# (§2) To verify the target of the compound of Formula 1 using the CETSA technique, the human A431 cell lines and mouse Raw264.7 cell lines were seeded on a 100-mm or 150-mm culture dish and cultured for one day. […] Afterwards, centrifugation was performed at 20000 g for 20 minutes at 4° C., the supernatant was transferred to a new container, and each concentration was measured by using the Micro BCA™ protein assay kit (ThermoFisher) according to the protocol of the manufacturer. The concentration of each sample was equally adjusted by using the RIPA lysis buffer, the 5× SDS-PAGE loading buffer (Biosesang) was added according to the ratio of the manufacturer, and the resultant was treated at 95° C. for 5 minutes and analyzed by using the Western blotting method described above.
# STING = STING (Homo sapiens, UniProt Q86WV6); experiment: CETSA and ITDRF in A431 cells, STING; type: binding; design: endogenous in cells; host or cells: A431
# Source text: as §1, §2
# Sequence of STING (Q86WV6 whole entry H232R): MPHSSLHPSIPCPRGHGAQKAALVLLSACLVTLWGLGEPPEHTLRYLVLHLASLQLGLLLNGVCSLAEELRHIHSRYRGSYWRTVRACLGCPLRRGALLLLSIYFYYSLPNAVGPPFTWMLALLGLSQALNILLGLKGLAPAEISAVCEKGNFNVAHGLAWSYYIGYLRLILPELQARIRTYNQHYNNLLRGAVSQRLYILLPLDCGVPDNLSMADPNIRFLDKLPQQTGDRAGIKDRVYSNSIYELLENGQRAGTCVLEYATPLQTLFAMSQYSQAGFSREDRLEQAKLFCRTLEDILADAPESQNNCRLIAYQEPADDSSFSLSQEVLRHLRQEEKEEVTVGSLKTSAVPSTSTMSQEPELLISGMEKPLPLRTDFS
smiles,measurement,setting,value
"COc1ccc(CC2=CN(c3ccc(C(=O)NC[C@H]4CCCO4)cc3[N+](=O)[O-])[C@H](C(C)C)C(=O)N2Cc2ccc(O)cc2)cc1 [Formula 1, 4-((R)-4-(4-hydroxybenzyl)-2-isopropyl-5-(4-methoxybenzyl)-3-oxo-3,4-dihydropyrazin-1 (2H)-yl)-3-nitro-N-(((R)-tetrahydrofuran-2-yl)methyl)benzamide]",OT-1 T cell proliferation (cross-antigen presentation),[1]; MC38 control group,such an effect did not occur at all
same,OT-1 T cell proliferation (cross-antigen presentation),"[1]; killed MC38-OVA cells, concentration-dependent",promoted cell proliferation
same,relation of STING increase to RNA transcription (STING mRNA),STING mRNA,not related to RNA transcription
same,ITDRF effect on TRIM29,TRIM29,without affecting TRIM29
same,CETSA thermal stability of STING,STING; FIG. 11,induced thermal destabilization by selective binding only to STING
same,ITDRF thermal stability of STING,STING; FIG. 12,reduced the thermal stability of STING at high concentrations in a concentration-dependent manner
